Results as given in US10562887B2, “Triazolones and tetrazolones as inhibitors of ROCK” (BRISTOL-MYERS SQUIBB COMPANY, priority 2016, dated 2020).

Molecular target: ROCK2 (Homo sapiens (Human), UniProt O75116)
Test: ROCK2 assay (peptide phosphorylation, LABCHIP 3000 Reader)
Type: biochemical
Conditions: 5 μM ATP, 1.5 μM peptide substrate
Method: The effectiveness of compounds of the present invention as ROCK inhibitors can be determined in a 30 μL, assay containing 20 mM HEPES, pH 7.5, 20 mM MgCl2, 0.015% Brij-35, 4 mM DTT, 5 μM ATP and 1.5 μM peptide substrate (FITC-AHA-AKRRRLSSLRA-OH). Compounds were dissolved in DMSO so that the final concentration of DMSO was <2%, and the reaction was initiated with Rho kinase variants. After incubation, the reaction was terminated by the addition of EDTA and the phosphorylated and non-phosphorylated peptides separated using a LABCHIP® 3000 Reader (Caliper Life Sciences). […] Compounds were tested in dose-response format, and the inhibition of kinase activity was calculated at each concentration of compound. The inhibition data were fit using a curve-fitting program to determine the IC50; i.e., the concentration of compound required to inhibit 50% of kinase activity.
Representative Examples were tested in the ROCK2 assay described above and found having ROCK2 inhibitory activity.

Sequence of ROCK2 (O75116 whole entry, species assumed): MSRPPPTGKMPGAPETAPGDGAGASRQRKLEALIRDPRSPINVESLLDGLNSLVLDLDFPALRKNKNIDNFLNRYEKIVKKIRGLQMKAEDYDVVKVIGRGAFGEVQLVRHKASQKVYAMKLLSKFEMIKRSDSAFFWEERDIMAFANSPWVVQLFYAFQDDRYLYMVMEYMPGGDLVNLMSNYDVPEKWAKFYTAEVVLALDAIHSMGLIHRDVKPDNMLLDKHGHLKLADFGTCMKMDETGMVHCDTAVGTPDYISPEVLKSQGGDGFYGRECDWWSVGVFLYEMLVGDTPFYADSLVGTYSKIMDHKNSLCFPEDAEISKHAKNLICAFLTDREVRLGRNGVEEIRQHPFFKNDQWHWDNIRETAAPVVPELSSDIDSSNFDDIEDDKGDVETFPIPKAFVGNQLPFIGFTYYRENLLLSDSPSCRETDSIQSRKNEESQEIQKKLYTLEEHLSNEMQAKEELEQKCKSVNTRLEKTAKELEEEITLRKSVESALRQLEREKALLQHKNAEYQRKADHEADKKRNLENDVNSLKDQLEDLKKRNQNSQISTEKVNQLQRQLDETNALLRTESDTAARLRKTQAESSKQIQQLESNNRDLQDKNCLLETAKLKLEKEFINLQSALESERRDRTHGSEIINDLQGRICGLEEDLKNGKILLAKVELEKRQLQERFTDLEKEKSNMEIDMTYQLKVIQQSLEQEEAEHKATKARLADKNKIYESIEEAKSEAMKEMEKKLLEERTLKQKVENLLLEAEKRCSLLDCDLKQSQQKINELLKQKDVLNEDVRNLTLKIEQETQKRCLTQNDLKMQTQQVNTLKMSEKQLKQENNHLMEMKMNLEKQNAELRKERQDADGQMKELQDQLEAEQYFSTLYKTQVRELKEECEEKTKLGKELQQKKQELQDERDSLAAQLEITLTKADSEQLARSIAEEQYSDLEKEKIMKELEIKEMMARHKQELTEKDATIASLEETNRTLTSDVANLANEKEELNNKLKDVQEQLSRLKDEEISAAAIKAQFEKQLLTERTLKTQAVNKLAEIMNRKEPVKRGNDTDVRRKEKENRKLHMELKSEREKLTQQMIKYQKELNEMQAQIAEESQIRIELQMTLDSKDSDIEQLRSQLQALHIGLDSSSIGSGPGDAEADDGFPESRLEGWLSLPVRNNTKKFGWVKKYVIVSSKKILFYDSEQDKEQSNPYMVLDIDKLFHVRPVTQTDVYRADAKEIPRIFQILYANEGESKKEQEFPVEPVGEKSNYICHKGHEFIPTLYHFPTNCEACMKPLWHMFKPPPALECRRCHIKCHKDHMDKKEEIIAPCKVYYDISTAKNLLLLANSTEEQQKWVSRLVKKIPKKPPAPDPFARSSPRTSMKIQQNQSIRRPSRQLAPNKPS

SMILES | IC50
COc1cccc(C(C)n2cnn(-c3ccc(-c4cn[nH]c4)cc3)c2=O)c1 (single isomer, unassigned) [Example 47, 1-(4-(1H-pyrazol-4-yl)phenyl)-4-(1-(3-methoxyphenyl)ethyl)-1H-1,2,4-triazol-5(4H)-one] | 5 to 50 nM
COc1cccc(C(C)n2cnn(-c3ccc(-c4cn[nH]c4)cc3)c2=O)c1 (single isomer, unassigned) [Example 48, 1-(4-(1H-pyrazol-4-yl)phenyl)-4-(1-(3-methoxyphenyl)ethyl)-1H-1,2,4-triazol-5(4H)-one] | < 5 nM
COc1cccc(C(C)n2c(C)nn(-c3ccc(-c4cn[nH]c4)cc3)c2=O)c1 (single isomer, unassigned) [Example 118, 1-(4-(1H-pyrazol-4-yl)phenyl)-4-(1-(3-methoxyphenyl)ethyl)-3-methyl-1H-1,2,4-triazol-5(4H)-one] | 5 to 50 nM
COc1cccc(C(C)n2c(C)nn(-c3ccc(-c4cn[nH]c4)cc3)c2=O)c1 (single isomer, unassigned) [Example 119, 1-(4-(1H-pyrazol-4-yl)phenyl)-4-(1-(3-methoxyphenyl)ethyl)-3-methyl-1H-1,2,4-triazol-5(4H)-one] | 5 to 50 nM
CC(O)c1nn(-c2ccc(-c3cn[nH]c3)cc2)c(=O)n1Cc1ccccc1 (single isomer, unassigned) [Example 140, 1-(4-(1H-pyrazol-4-yl)phenyl)-4-benzyl-3-(1-hydroxyethyl)-1H-1,2,4-triazol-5(4H)-one] | 5 to 50 nM
CC(O)c1nn(-c2ccc(-c3cn[nH]c3)cc2)c(=O)n1Cc1ccccc1 (single isomer, unassigned) [Example 141, 1-(4-(1H-pyrazol-4-yl)phenyl)-4-benzyl-3-(1-hydroxyethyl)-1H-1,2,4-triazol-5(4H)-one] | 5 to 50 nM
COc1cc(Cn2c(C(C)O)nn(-c3ccc(-c4cn[nH]c4)cc3)c2=O)cc(OC)c1 (single isomer, unassigned) [Example 147, 1-(4-(1H-pyrazol-4-yl)phenyl)-4-(3,5-dimethoxybenzyl)-3-(1-hydroxyethyl)-1H-1,2,4-triazol-5(4H)-one] | 50 to 250 nM
O=c1n(-c2ccc(-c3cn[nH]c3)cc2)cnn1Cc1cccc(F)c1 [Example 1, 4-(4-(1H-pyrazol-4-yl)phenyl)-1-(3-fluorobenzyl)-1H-1,2,4-triazol-5(4H)-one] | 50 to 250 nM
O=c1n(-c2ccc(-c3cn[nH]c3)cc2)cnn1Cc1ccccc1 [Example 2, 4-(4-(1H-pyrazol-4-yl)phenyl)-1-benzyl-1H-1,2,4-triazol-5(4H)-one] | 50 to 250 nM
COc1cccc(Cn2ncn(-c3ccc(-c4cn[nH]c4)cc3)c2=O)c1 [Example 3, 4-(4-(1H-pyrazol-4-yl)phenyl)-1-(3-methoxybenzyl)-1H-1,2,4-triazol-5(4H)-one] | 50 to 250 nM
O=c1n(-c2ccc(-c3cn[nH]c3)cc2)cnn1Cc1cc(F)ccc1F [Example 4, 4-(4-(1H-pyrazol-4-yl)phenyl)-1-(2,5-difluorobenzyl)-1H-1,2,4-triazol-5(4H)-one] | 250 to 2000 nM
COc1cc(-n2cnn(Cc3ccccc3)c2=O)ccc1-c1cn[nH]c1 [Example 5, 1-benzyl-4-(3-methoxy-4-(1H-pyrazol-4-yl)phenyl)-1H-1,2,4-triazol-5(4H)-one] | 50 to 250 nM
COc1cccc(Cn2ncn(-c3ccc(-c4cn[nH]c4)c(OC)c3)c2=O)c1 [Example 6, 4-(3-methoxy-4-(1H-pyrazol-4-yl)phenyl)-1-(3-methoxybenzyl)-1H-1,2,4-triazol-5(4H)-one] | 5 to 50 nM
COc1cc(-n2cnn(Cc3cccc(F)c3)c2=O)ccc1-c1cn[nH]c1 [Example 7, 1-(3-fluorobenzyl)-4-(3-methoxy-4-(1H-pyrazol-4-yl)phenyl)-1H-1,2,4-triazol-5(4H)-one] | 50 to 250 nM
COc1cc(-n2cnn(C(C)c3ccccc3)c2=O)ccc1-c1cn[nH]c1 (centres unmarked) [Example 8, 4-(3-methoxy-4-(1H-pyrazol-4-yl)phenyl)-1-(1-phenylethyl)-1H-1,2,4-triazol-5(4H)-one] | 250 to 2000 nM
COc1cc(-n2cnn(CCc3ccccc3)c2=O)ccc1-c1cn[nH]c1 [Example 9, 4-(3-methoxy-4-(1H-pyrazol-4-yl)phenyl)-1-phenethyl-1H-1,2,4-triazol-5(4H)-one] | 50 to 250 nM
COc1cc(-c2cn[nH]c2)ccc1-n1cnn(Cc2ccccc2)c1=O [Example 10, 1-benzyl-4-(2-methoxy-4-(1H-pyrazol-4-yl)phenyl)-1H-1,2,4-triazol-5(4H)-one] | 250 to 2000 nM
COc1cccc(Cn2ncn(-c3ccc(-c4cn[nH]c4)cc3OC)c2=O)c1 [Example 11, 4-(2-methoxy-4-(1H-pyrazol-4-yl)phenyl)-1-(3-methoxybenzyl)-1H-1,2,4-triazol-5(4H)-one] | 50 to 250 nM
COc1cc(-c2cn[nH]c2)ccc1-n1cnn(Cc2cccc(F)c2)c1=O [Example 12, 1-(3-fluorobenzyl)-4-(2-methoxy-4-(1H-pyrazol-4-yl)phenyl)-1H-1,2,4-triazol-5(4H)-one] | 50 to 250 nM

SMILES | IC50
COc1cc(-c2cn[nH]c2)ccc1-n1cnn(Cc2cc(F)ccc2F)c1=O [Example 13, 1-(2,5-difluorobenzyl)-4-(2-methoxy-4-(1H-pyrazol-4-yl)phenyl)-1H-1,2,4-triazol-5(4H)-one] | 250 to 2000 nM
COc1cc(-c2cn[nH]c2)ccc1-n1cnn(CCc2ccccc2)c1=O [Example 14, 4-(2-methoxy-4-(1H-pyrazol-4-yl)phenyl)-1-phenethyl-1H-1,2,4-triazol-5(4H)-one] | 50 to 250 nM
CC(c1ccccc1)n1ncn(-c2ccc(-c3cn[nH]c3)cc2)c1=O (centres unmarked) [Example 15, 4-(4-(1H-pyrazol-4-yl)phenyl)-1-(1-phenylethyl)-1H-1,2,4-triazol-5(4H)-one] | 250 to 2000 nM
COc1cc(-c2cn[nH]c2)ccc1-n1cnn(Cc2cc(F)ccc2F)c1=O [Example 16, 1-(2,5-difluorobenzyl)-4-(2-methoxy-4-(1H-pyrazol-4-yl)phenyl)-1H-1,2,4-triazol-5(4H)-one] | 50 to 250 nM
O=c1n(Cc2ccccc2)cnn1-c1ccc(-c2cn[nH]c2)cc1 [Example 17, 1-(4-(1H-pyrazol-4-yl)phenyl)-4-benzyl-1H-1,2,4-triazol-5(4H)-one] | 5 to 50 nM
COc1cccc(Cn2cnn(-c3ccc(-c4cn[nH]c4)cc3)c2=O)c1 [Example 18, 1-(4-(1H-pyrazol-4-yl)phenyl)-4-(3-methoxybenzyl)-1H-1,2,4-triazol-5(4H)-one] | < 5 nM
O=c1n(Cc2cccc(F)c2)cnn1-c1ccc(-c2cn[nH]c2)cc1 [Example 19, 1-(4-(1H-pyrazol-4-yl)phenyl)-4-(3-fluorobenzyl)-1H-1,2,4-triazol-5(4H)-one] | < 5 nM
O=c1n(Cc2cc(F)ccc2F)cnn1-c1ccc(-c2cn[nH]c2)cc1 [Example 20, 1-(4-(1H-pyrazol-4-yl)phenyl)-4-(2,5-difluorobenzyl)-1H-1,2,4-triazol-5(4H)-one] | 5 to 50 nM
COc1cc(F)cc(Cn2cnn(-c3ccc(-c4cn[nH]c4)cc3)c2=O)c1 [Example 21, 1-(4-(1H-pyrazol-4-yl)phenyl)-4-(3-fluoro-5-methoxybenzyl)-1H-1,2,4-triazol-5(4H)-one] | < 5 nM
CC(c1ccccc1)n1cnn(-c2ccc(-c3cn[nH]c3)cc2)c1=O (centres unmarked) [Example 22, 1-(4-(1H-pyrazol-4-yl)phenyl)-4-(1-phenylethyl)-1H-1,2,4-triazol-5(4H)-one] | < 5 nM
COc1cc(-n2ncn(Cc3ccccc3)c2=O)ccc1-c1cn[nH]c1 [Example 23, 4-benzyl-1-(3-methoxy-4-(1H-pyrazol-4-yl)phenyl)-1H-1,2,4-triazol-5(4H)-one] | < 5 nM
COc1cccc(Cn2cnn(-c3ccc(-c4cn[nH]c4)c(OC)c3)c2=O)c1 [Example 24, 1-(3-methoxy-4-(1H-pyrazol-4-yl)phenyl)-4-(3-methoxybenzyl)-1H-1,2,4-triazol-5(4H)-one] | < 5 nM
COc1cc(-n2ncn(Cc3cc(F)ccc3F)c2=O)ccc1-c1cn[nH]c1 [Example 25, 4-(2,5-difluorobenzyl)-1-(3-methoxy-4-(1H-pyrazol-4-yl)phenyl)-1H-1,2,4-triazol-5(4H)-one] | 5 to 50 nM
COc1cc(F)cc(Cn2cnn(-c3ccc(-c4cn[nH]c4)c(OC)c3)c2=O)c1 [Example 26, 4-(3-fluoro-5-methoxybenzyl)-1-(3-methoxy-4-(1H-pyrazol-4-yl)phenyl)-1H-1,2,4-triazol-5(4H)-one] | < 5 nM
COc1cc(-n2ncn(C(C)c3ccccc3)c2=O)ccc1-c1cn[nH]c1 (centres unmarked) [Example 27, 1-(3-methoxy-4-(1H-pyrazol-4-yl)phenyl)-4-(1-phenylethyl)-1H-1,2,4-triazol-5(4H)-one] | < 5 nM
O=c1n(Cc2ccccc2F)cnn1-c1ccc(-c2cn[nH]c2)cc1 [Example 28, 1-(4-(1H-pyrazol-4-yl)phenyl)-4-(2-fluorobenzyl)-1H-1,2,4-triazol-5(4H)-one] | 5 to 50 nM
O=c1n(Cc2ccccc2Cl)cnn1-c1ccc(-c2cn[nH]c2)cc1 [Example 29, 1-(4-(1H-pyrazol-4-yl)phenyl)-4-(2-chlorobenzyl)-1H-1,2,4-triazol-5(4H)-one] | 5 to 50 nM
COc1cc(-n2ncn(Cc3cccc(F)c3)c2=O)ccc1-c1cn[nH]c1 [Example 30, 4-(3-fluorobenzyl)-1-(3-methoxy-4-(1H-pyrazol-4-yl)phenyl)-1H-1,2,4-triazol-5(4H)-one] | < 5 nM
COc1cc(-n2ncn(Cc3ccccc3F)c2=O)ccc1-c1cn[nH]c1 [Example 31, 4-(2-fluorobenzyl)-1-(3-methoxy-4-(1H-pyrazol-4-yl)phenyl)-1H-1,2,4-triazol-5(4H)-one] | 5 to 50 nM
